| Structure (SMILES) | melting point |
| --- | --- |
| CC(C)=Cn1cnc2c(N)nc3ccccc3c21 | 284 to 289 °C |
| Cc1cc2c(c(C(O)c3cn(C(c4ccccc4)(c4ccccc4)c4ccccc4)cn3)c1)OC(C)(C)OC2 (configuration not stated) | 205 to 215 °C |
| CS(=O)(=O)Nc1ccc(C(=O)NC(=O)N2CCC(Oc3ccc(Cl)cc3)CC2)cc1 | 79 °C |
| c1ccc(CCN2CCN(Cc3nc4ccccc4[nH]3)CC2)cc1 | 150 to 152 °C |
| Cc1nc(C(F)(F)F)ccc1NC(=NC#N)NC(NC(=O)c1ccc(Cl)cc1)C(C)(Cl)Cl (configuration not stated) | 115 to 116 °C |
| Nc1ccc(F)c(C(=O)Nc2ccccc2)c1 | 120 to 122 °C |
| CCC([O-])=C(C(=O)OCc1ccc([N+](=O)[O-])cc1)N1C(=O)CC1[N+](CC)(CC)CC (configuration not stated) | 110 to 112 °C |
| c1ccc2c(SCc3ccncc3)ncnc2c1 | 117 to 118 °C |
| CCOC(=O)CNC(=O)c1c(Cl)c2cc(Oc3ccc(C(F)(F)F)cc3)ccc2n1-c1ccc(OC(C)C)cc1 | 80 to 81 °C |
| COc1cccc2c1CCC21OC(=O)c2ccccc21 (configuration not stated) | 111 to 112 °C |
| Cc1ccc(-c2ncc(N(C)CCCCOCC(=O)O)nc2-c2ccc(C)cc2)cc1 | 161 to 162 °C |
| COC(=O)c1ccc(-c2nc(-c3ccc(C(C)C)cc3)cs2)cc1 | 134 to 135 °C |
| COc1ccc(C(=O)Nc2c(C)c(C)c3c(c2C)C(c2ccc(C)cc2)C(C)(C)O3)cc1 (configuration not stated) | 161 to 163 °C |
| CC(C)(C)OC(=O)Nc1ccc(-c2ccc(Cl)c(Cl)c2)cc1N | 169 to 171 °C |
| OCc1nc2ccc(OC(F)(F)F)cc2[nH]1 | 192 to 194 °C |
| C1=C(c2ccc3c(c2)OCO3)CCC2(C1)OCCO2 | 75 to 76 °C |
| O=c1ccc2c(F)cc(F)cc2[nH]1 | 292 to 318 °C |
| CCOC(=O)C=Cc1ccc([N+](=O)[O-])c(C)c1 | 90 to 92 °C |
| CCC(CCNC(=O)CC#N)NC(=O)CC#N (configuration not stated) | 125 °C |
| Cc1cc(N)nc(CCCCNC(=O)c2c(O)cccc2O)c1 | 158 to 159 °C |
| CC(=O)c1ccc2c(c1)C(C(=O)Nc1cccc(C(=O)Nc3ccccc3)c1)C(=O)N2CC(F)(F)F (configuration not stated) | 197 to 203 °C |
| C[C@H]1COc2c(N3C[C@@H]4CCOC[C@@]4(N)C3)c(F)cc3c(=O)c(C(=O)O)cn1c23 | > 300 °C |
| CS(=O)(=O)c1ccc(-n2nc(C(F)(F)F)cc2-c2ccc(-c3cscn3)c(Cl)c2)cc1F | 108 to 110 °C |
| O=C(O)c1ccc(I)cc1F | 158 to 159 °C |

| Structure (SMILES) | melting point |
| --- | --- |
| CS(=O)(=O)c1ccc(-c2cnn(CC(=O)c3ccc(OC(F)(F)F)cc3)c(=O)c2-c2ccc(F)cc2)cc1 | 160 to 161 °C |
| c1ccc(COc2cc(OCc3ccccc3)c3ccncc3c2)cc1 | 113 to 115 °C |
| C=CCN1C2C=C(c3cc4ccccc4s3)CC1CC2 (configuration not stated) | 60.6 to 62.6 °C |
| CCOC(=O)c1cn(-c2ccc(F)cc2)c2nc(Cl)c(F)cc2c1=O | 230 to 232 °C |
| CCOC(=O)NC(=S)NCC(C)C | 50 to 52 °C |
| N#Cc1ccc(-c2cc(C(=O)O)c(=O)n(Cc3ccccc3)n2)cc1 | 254 to 256 °C |
| CC(=O)Oc1ccc(C(=O)Nc2cc([N+](=O)[O-])ccc2C)cc1 | 207 to 208 °C |
| Cn1ccnc1Sc1ccc(Nc2c(C#N)cnc3cc(/C=C/CN4CCCC4)ccc23)cc1Cl | 182 to 190 °C |
| CC1Sc2c(C(=O)O)c(=O)c3cc(F)c(N4CCNCC4)cc3n21 (configuration not stated) | 225 to 227 °C |
| CCc1nc(Cl)c(C=O)n1Cc1ccc2oc(-c3ccccc3NC(=O)OC(C)(C)C)c(Br)c2c1 | 65 to 66 °C |
| Clc1ccc2cc(CBr)c3ccsc3c2c1 | 144 to 146 °C |
| CNCC1Cc2cc(-c3cccc(F)c3)cc(F)c2O1 (configuration not stated) | > 250 °C |
| Cc1oc(C=Cc2cccc(C(F)(F)F)c2)nc1C(=O)O | 204 to 205 °C |
| NNC(=O)c1cccc(OCc2csc(-c3ccccc3F)n2)c1 | 143 to 145 °C |
| Cc1nc(Nc2ccc3[nH]ccc3c2)c2sc(-c3ccccc3)cc2n1 | 205 to 210 °C |
| CS(=O)(=O)OCCCCC1C(=O)Nc2cc(F)ccc21 (configuration not stated) | 106 to 108 °C |
| O=C(OCc1ccccc1)N1C[C@@H](O)[C@H](Oc2cccc(Cl)c2Cl)C1 (relative stereo) | 130 to 132 °C |
| C/C(Cl)=C/CC(C)(C(=O)O)C(=O)O | 99 to 101 °C |
| CC(CC#N)N1C(=O)C2(OCCCO2)c2cc(Br)ccc21 (configuration not stated) | 112 to 113 °C |
| Clc1ccccc1-c1c(I)nc2ncnn2c1NC1CCCC1 | 150 °C |
| O=C1c2ccccc2C(=O)c2c1c(Oc1ccc(CCCO)cc1)c1ccccc1c2Oc1ccc(CCCO)cc1 | 218 to 220 °C |
| Cc1ccccc1CN1CCN(C)CC1C1=NCCN1 (configuration not stated) | 156 to 158 °C |
| O=C(C=Cc1cccc(Cl)c1)C=Cc1cccc(Cl)c1 | 120 to 121 °C |

Now from value to compound:

| melting point | Structure (SMILES) |
| --- | --- |
| 203 to 204 °C | Cc1cc(C)c2c(c1)c(-c1ccccc1Cl)c(NC(=O)Nc1c(C)cccc1C(C)C)c(=O)n2C |
| 58 to 59 °C | COc1ccc(COCc2ccc(OC)cc2)cc1 |
| 167 °C | CCC(=O)NC(Cl)C(Cl)(Cl)CCl (configuration not stated) |
| 124 to 125 °C | O=C(OCCN1CCOC1=O)c1ccccc1Nc1ccnc2cc(C(F)(F)F)ccc12 |
| 127 to 128 °C | COC(=O)CCC(=O)c1cc(NC(C)=O)ccc1OCC(O)CNC(C)(C)C (configuration not stated) |
| 215 to 220 °C | CCOC(=O)CCCOc1cc(C=Cc2ccc3ccc(Br)cc3n2)ccc1Cl |
| 207 to 208 °C | CC(C)=NOCc1nc2c(N)nc3cccnc3c2n1CCCNC(=O)NC1CCCCC1 |
| 125 to 127 °C | O=C1CCCN1C1=CC(CF)(CF)Oc2ccc(C(F)(F)F)cc21 |
| 200 to 202 °C | COc1ccc2c(c1)Cc1cc(CC(=O)O)ccc1-2 |
| 131 to 133 °C | CCCCOP(=O)(CCCCC1(C(=O)NCCC)c2ccccc2-c2cccnc21)OCCCC (configuration not stated) |
| 115 to 118 °C | CCOC(=O)/C=C/c1c(CC)cnc2c(NC(=O)c3c(Cl)cccc3Cl)cccc12 |
| 171 to 172 °C | O=C(Nc1cccc(C(F)(F)F)c1)c1ccccc1NCc1ccc(=O)[nH]c1 |
| > 350 °C | N#Cc1cc(C=C2SC(=S)NC2=O)cc(O)c1O |
| 245 to 246 °C | CC1Cc2cc(S(N)(=O)=O)cc(C(=O)O)c2O1 (configuration not stated) |
| 184 to 186 °C | OC1CCOc2ccc(C=Cc3nc4cc(F)ccc4s3)cc21 (configuration not stated) |
| 105 to 109 °C | CCC(CC(Cc1cccc2ccccc12)C(=O)N[C@@H](Cc1c[nH]cn1)C(=O)N[C@H](C=NNC(N)=O)CC(C)C)c1ccccc1 (some centres not stated) |
| 270 to 272 °C | CC(C)(O)Cn1c(CON2C(=O)c3ccccc3C2=O)nc2c(N)nc3ccccc3c21 |
| 39 to 43 °C | CCCCCCCCCCCCCCCCC(O)CCCOC1CCCCO1 (configuration not stated) |
| 258 to 260 °C | O=C1c2ccccc2C(=O)N1CC(=O)N1c2ccccc2N(Cc2ccc3ccccc3n2)C(=O)[C@H]2CCC[C@H]21 (relative stereo) |
| 66 to 67 °C | CC(C)SN1N=C(c2ccccc2)C(SC(C)C)(SC(C)C)C1=O |
| 155 to 157 °C | CC1(C)OC(C=Cc2cccc(C#N)c2)=CC1=O |
| 83 to 87 °C | CC(=O)c1[nH]c(C)nc1C |
| 142 to 144 °C | C=CS(=O)(=O)NCc1ccc(C(N)=O)cc1 |
| 180 °C | Cn1cnc2c(OC3SCC(O)C(O)C3O)cccc21 (configuration not stated) |
| 118 to 120 °C | CCCCCCCCCOC(=O)Oc1ccc(C(=O)O)cc1 |
| 116 °C | COc1ccc(CC2(C)CN(C(c3ccccc3)c3ccccc3)CCN2C(C)=O)cc1OC (configuration not stated) |
| 105 °C | O=c1cc(-c2cccc(Cl)c2)c2cc(Br)ccc2[nH]1 |
| < 250 °C | NNc1nc2cc(Cl)ccc2nc1Cl |

| melting point | Structure (SMILES) |
| --- | --- |
| 137 to 138 °C | CCC#COc1ccc(S(=O)(=O)NC(CSCc2ccccc2)C(=O)NO)cc1 (configuration not stated) |
| 89 to 91 °C | CC(C)(C)OC(=O)NCc1ccc(CC(=O)O)cc1 |
| 217 to 219 °C | CCCCN1C(N)=NS(=O)(=O)NC1Oc1cccc(C)c1 (configuration not stated) |
| 168 to 170 °C | C[Si](C)(C)c1ccc2cc3c(cc2c1)C(=O)c1ccccc1C3=O |
| 172 to 174 °C | CNc1cc(Cl)c(C=O)c(Cl)c1 |
| 97 to 100 °C | Cc1ccc(-c2cc3ccc4ccccc4c3o2)cc1 |
| 73 to 74 °C | O=C(CCc1ccc(F)cc1)c1cccnc1F |
| 62 to 63 °C | CCOC(=O)CCC(=O)c1ccc(CCCCN2CCN(c3cccc(C)c3)CC2)cc1 |
| 61 to 62 °C | O=C(NCCCC1CCC2=C1CC=CC2)C(F)(F)F (configuration not stated) |
| 109 to 110 °C | CCOP(=O)(/C=C/c1cn(-c2ccccc2)nc1OCc1ccc(OCc2nc(-c3ccccc3)oc2C)cc1)OCC |
| 209 to 210 °C | CCOc1nc2c(C(=O)OC)sc(C)c2[nH]1 |
| 220 to 222 °C | O=Cc1ccnc2c1NC(=O)c1cccnc1N2C1CC1 |
| 107 to 109 °C | COC(=O)c1cc(Cl)c2c(c1OC)CCN2C(C)=O |
| 135 to 136 °C | O=C1c2c(Cl)cccc2S(=O)(=O)N1CCl |
| 165 °C | Cc1ccc(S(=O)(=O)N2Cc3sccc3-n3cccc3C2)cc1 |
| 233 to 235 °C | Oc1ccc2c(c1)CCc1c-2cc2ccc(O)cc2c1C1CCCC1 |
| 169 to 170 °C | Brc1nnc2n1C=Cc1ccccc1C2 |
| 196 to 199 °C | COC(=O)N(CC(=O)Nc1ccc(S(N)(=O)=O)cc1)c1ccccc1 |
| 218 to 220 °C | O=C(CNc1cccc(F)c1)Nc1c(Cl)ccc2nc(N3CC[C@@H](O)C3)ccc12 |
| 100 to 102 °C | Cc1ccc(S(=O)(=O)N2CCCC(CCl)C2)cc1 (configuration not stated) |
| 159 to 163 °C | COC1CC2(C)C(CCC3C4CC=C(C(C)=O)C4(C)CC(=O)C32)CC1O (configuration not stated) |
| 162 to 165 °C | COC(=O)N1CCC(=O)C(C2(NO)OCCO2)C1 (configuration not stated) |
| 103 to 104 °C | Cc1nc(N)nc(CCCCCCCCCCO)c1O |
| 103 to 106 °C | CCOC(=O)C(C)n1c(-c2ccc(Cl)cc2)nc2cccnc21 (configuration not stated) |
| 140 to 141 °C | CSc1cc(C)nc(SC)c1NC(=O)CN1CCN(CCSc2nc3ccccc3o2)CC1 |
| 126 to 127 °C | CCCc1c(OCCCOc2ccc(N)cc2)ccc2c1OC(CCC(=O)OCC)(CCC(=O)OCC)CC2=O |
| 114 °C | CCOC(=O)C(SC)=C(O)C1C(C(=O)O)C1(C)C (configuration not stated) |

From a melting point compilation (Tetko et al.; mined from patent text by program, amines drawn as free bases though some values may be those of a salt)
